Experimental data published in patent US20070287752A1, “Ophthalmic Compositions Comprising A Branched, Glycerol Compound” (priority 2006, published 2007).

Tests used:
Test in all cases: Preservative/disinfectant system efficacy testing (log reduction)
Type in all cases: cell-based
[1] = test system: Staphylococcus aureus (ATCC 6538)
Description: (§1) The ophthalmic compositions are evaluated in accordance with specific procedures outlined by the US Food & Drug Administration and the International Organization for Standardization for the testing of microbiocidal efficacy.

[2] = test system: Candida albicans (ATCC 10231)
Description: as §1

[3] = test system: Pseudomonas aeruginosa (ATCC 9027)
Description: as §1

[4] = test system: Serratia marcescens (ATCC 13880)
Description: as §1

[5] = 1 hr, Table 5A multi-purpose lens care solution, 10% organic soil, disinfectant concentrations as in label
[6] = 1 hr, phosphate buffered saline, 10% organic soil, concentrations as in label (Table 4)
[7] = 4 hr, Table 5A multi-purpose lens care solution, 10% organic soil, disinfectant concentrations as in label
[8] = 4 hr, phosphate buffered saline, 10% organic soil, concentrations as in label (Table 4)
[9] = EHOPD 0.0001 wt %, 1 hr, borate buffered saline, 10% organic soil
[10] = EHOPD 0.0001 wt %, 1 hr, phosphate buffered saline, 10% Organic Soil
[11] = EHOPD 0.0001 wt %, 4 hr, borate buffered saline, 10% organic soil
[12] = EHOPD 0.0001 wt %, 4 hr, phosphate buffered saline, 10% Organic Soil
[13] = EHOPD 0.001 wt %, 1 hr, borate buffered saline, 10% organic soil
[14] = EHOPD 0.001 wt %, 1 hr, phosphate buffered saline, 10% Organic Soil
[15] = EHOPD 0.001 wt %, 4 hr, borate buffered saline, 10% organic soil
[16] = EHOPD 0.001 wt %, 4 hr, phosphate buffered saline, 10% Organic Soil
[17] = EHOPD 0.01 wt %, 1 hr, Table 3A multi-purpose lens care formulation, 10% organic soil
[18] = EHOPD 0.01 wt %, 1 hr, borate buffered saline, 10% organic soil
[19] = EHOPD 0.01 wt %, 1 hr, phosphate buffered saline, 10% Organic Soil
[20] = EHOPD 0.01 wt %, 4 hr, Table 3A multi-purpose lens care formulation, 10% organic soil
[21] = EHOPD 0.01 wt %, 4 hr, borate buffered saline, 10% organic soil
[22] = EHOPD 0.01 wt %, 4 hr, phosphate buffered saline, 10% Organic Soil
[23] = EHOPD 0.1 wt %, 1 hr, Table 3A multi-purpose lens care formulation, 10% organic soil
[24] = EHOPD 0.1 wt %, 1 hr, borate buffered saline, 10% organic soil
[25] = EHOPD 0.1 wt %, 1 hr, phosphate buffered saline, 10% Organic Soil
[26] = EHOPD 0.1 wt %, 4 hr, Table 3A multi-purpose lens care formulation, 10% organic soil
[27] = EHOPD 0.1 wt %, 4 hr, borate buffered saline, 10% organic soil
[28] = EHOPD 0.1 wt %, 4 hr, phosphate buffered saline, 10% Organic Soil
[29] = EHOPD 0.15 wt %, 1 hr, Table 3A multi-purpose lens care formulation, 10% organic soil
[30] = EHOPD 0.15 wt %, 4 hr, Table 3A multi-purpose lens care formulation, 10% organic soil
[31] = EHOPD 0.25 wt %, 1 hr, Table 3A multi-purpose lens care formulation, 10% organic soil
[32] = EHOPD 0.25 wt %, 4 hr, Table 3A multi-purpose lens care formulation, 10% organic soil
[33] = EHOPD 0.50 wt %, 1 hr, Table 3A multi-purpose lens care formulation, 10% organic soil
[34] = EHOPD 0.5 wt %, 1 hr, borate buffered saline, 10% organic soil
[35] = EHOPD 0.5 wt %, 1 hr, phosphate buffered saline, 10% Organic Soil
[36] = EHOPD 0.50 wt %, 4 hr, Table 3A multi-purpose lens care formulation, 10% organic soil
[37] = EHOPD 0.5 wt %, 4 hr, borate buffered saline, 10% organic soil
[38] = EHOPD 0.5 wt %, 4 hr, phosphate buffered saline, 10% Organic Soil
[39] = EHOPD 0.75 wt %, 1 hr, Table 3A multi-purpose lens care formulation, 10% organic soil
[40] = EHOPD 0.75 wt %, 4 hr, Table 3A multi-purpose lens care formulation, 10% organic soil
[41] = EHOPD 1.0 wt %, 1 hr, Table 3A multi-purpose lens care formulation, 10% organic soil
[42] = EHOPD 1.0 wt %, 4 hr, Table 3A multi-purpose lens care formulation, 10% organic soil

SMILES: CCCCC(CC)COCC(O)CO (centres unmarked) [EHOPD, 3-[(2-ethylhexyl)oxy]-1,2-propanediol]
- log reduction S. aureus [1, 5]: 1.2
- log reduction S. aureus [1, 6]: 1.2
- log reduction S. aureus [1, 7]: 1.2
- log reduction S. aureus [1, 8]: 1.3
- log reduction S. aureus [1, 9]: 1.4
- log reduction S. aureus [1, 10]: 1.4
- log reduction S. aureus [1, 11]: 1.4
- log reduction S. aureus [1, 12]: 1.4
- log reduction S. aureus [1, 13]: 1.4
- log reduction S. aureus [1, 14]: 1.4
- log reduction S. aureus [1, 15]: 1.4
- log reduction S. aureus [1, 16]: 1.4
- log reduction S. aureus [1, 17]: 1.4
- log reduction S. aureus [1, 18]: 1.4
- log reduction S. aureus [1, 19]: 1.4
- log reduction S. aureus [1, 20]: 1.4
- log reduction S. aureus [1, 21]: 1.4
- log reduction S. aureus [1, 22]: 1.4
- log reduction S. aureus [1, 23]: 1.4
- log reduction S. aureus [1, 24]: 1.7
- log reduction S. aureus [1, 25]: 1.4
- log reduction S. aureus [1, 26]: 1.4
- log reduction S. aureus [1, 27]: 4.0
- log reduction S. aureus [1, 28]: 3.0
- log reduction S. aureus [1, 29]: 1.4
- log reduction S. aureus [1, 30]: 1.4
- log reduction S. aureus [1, 31]: 1.4
- log reduction S. aureus [1, 32]: 1.4
- log reduction S. aureus [1, 33]: 1.4
- log reduction S. aureus [1, 34]: 1.8
- log reduction S. aureus [1, 35]: 1.4
- log reduction S. aureus [1, 36]: 1.8
- log reduction S. aureus [1, 37]: 4.3
- log reduction S. aureus [1, 38]: 3.1
- log reduction S. aureus [1, 39]: 1.6
- log reduction S. aureus [1, 40]: 3.1
- log reduction S. aureus [1, 41]: 2.2
- log reduction S. aureus [1, 42]: 3.7
- log reduction C. albicans [2, 5]: 2.1
- log reduction C. albicans [2, 6]: >5.0
- log reduction C. albicans [2, 7]: 2.8
- log reduction C. albicans [2, 8]: >5.0
- log reduction C. albicans [2, 9]: 2.3
- log reduction C. albicans [2, 10]: 2.3
- log reduction C. albicans [2, 11]: 2.3
- log reduction C. albicans [2, 12]: 2.3
- log reduction C. albicans [2, 13]: 2.3
- log reduction C. albicans [2, 14]: 2.3
- log reduction C. albicans [2, 15]: 2.3
- log reduction C. albicans [2, 16]: 2.3
- log reduction C. albicans [2, 17]: 2.0
- log reduction C. albicans [2, 18]: 2.3
- log reduction C. albicans [2, 19]: 2.3
- log reduction C. albicans [2, 20]: 2.0
- log reduction C. albicans [2, 21]: 2.3
- log reduction C. albicans [2, 22]: 2.3
- log reduction C. albicans [2, 23]: 2.0
- log reduction C. albicans [2, 24]: 5.4
- log reduction C. albicans [2, 25]: 3.8
- log reduction C. albicans [2, 26]: 2.0
- log reduction C. albicans [2, 27]: >5.7
- log reduction C. albicans [2, 28]: >5.7
- log reduction C. albicans [2, 29]: 2.0
- log reduction C. albicans [2, 30]: 2.0
- log reduction C. albicans [2, 31]: 2.0
- log reduction C. albicans [2, 32]: 2.0
- log reduction C. albicans [2, 33]: 2.0
- log reduction C. albicans [2, 34]: 5.1
- log reduction C. albicans [2, 35]: 3.8
- log reduction C. albicans [2, 36]: 3.1
- log reduction C. albicans [2, 37]: >5.7
- log reduction C. albicans [2, 38]: >5.7
- log reduction C. albicans [2, 39]: 4.2
- log reduction C. albicans [2, 40]: >5.5
- log reduction C. albicans [2, 41]: >5.5
- log reduction C. albicans [2, 42]: >5.5
- log reduction P. aeruginosa [3, 5]: 1.4
- log reduction P. aeruginosa [3, 6]: 1.5
- log reduction P. aeruginosa [3, 7]: 1.4
- log reduction P. aeruginosa [3, 8]: 1.5
- log reduction P. aeruginosa [3, 9]: 1.5
- log reduction P. aeruginosa [3, 10]: 1.5
- log reduction P. aeruginosa [3, 11]: 1.5
- log reduction P. aeruginosa [3, 12]: 1.5
- log reduction P. aeruginosa [3, 13]: 1.5
- log reduction P. aeruginosa [3, 14]: 1.5
- log reduction P. aeruginosa [3, 15]: 1.5
- log reduction P. aeruginosa [3, 16]: 1.5
- log reduction P. aeruginosa [3, 17]: 1.9
- log reduction P. aeruginosa [3, 18]: 2.6
- log reduction P. aeruginosa [3, 19]: 1.5
- log reduction P. aeruginosa [3, 20]: 1.9
- log reduction P. aeruginosa [3, 21]: >5.0
- log reduction P. aeruginosa [3, 22]: 1.5
- log reduction P. aeruginosa [3, 23]: >5.4
- log reduction P. aeruginosa [3, 24]: >5.0
- log reduction P. aeruginosa [3, 25]: 1.5
- log reduction P. aeruginosa [3, 26]: >5.4
- log reduction P. aeruginosa [3, 27]: >5.0
- log reduction P. aeruginosa [3, 28]: 3.7
- log reduction P. aeruginosa [3, 29]: >5.4
- log reduction P. aeruginosa [3, 30]: >5.4
- log reduction P. aeruginosa [3, 31]: >5.4
- log reduction P. aeruginosa [3, 32]: >5.4
- log reduction P. aeruginosa [3, 33]: >5.4
- log reduction P. aeruginosa [3, 34]: >5.0
- log reduction P. aeruginosa [3, 35]: 1.5
- log reduction P. aeruginosa [3, 36]: >5.4
- log reduction P. aeruginosa [3, 37]: >5.0
- log reduction P. aeruginosa [3, 38]: 4.1
- log reduction P. aeruginosa [3, 39]: >5.4
- log reduction P. aeruginosa [3, 40]: >5.4
- log reduction P. aeruginosa [3, 41]: >5.4
- log reduction P. aeruginosa [3, 42]: >5.4
- log reduction S. marcescens [4, 5]: 2.3
- log reduction S. marcescens [4, 6]: 3.0
- log reduction S. marcescens [4, 7]: 3.3
- log reduction S. marcescens [4, 8]: 3.9
- log reduction S. marcescens [4, 9]: 1.7
- log reduction S. marcescens [4, 10]: 1.7
- log reduction S. marcescens [4, 11]: 1.7
- log reduction S. marcescens [4, 12]: 1.7
- log reduction S. marcescens [4, 13]: 1.7
- log reduction S. marcescens [4, 14]: 1.7
- log reduction S. marcescens [4, 15]: 1.7
- log reduction S. marcescens [4, 16]: 3.2
- log reduction S. marcescens [4, 17]: 2.0
- log reduction S. marcescens [4, 18]: 1.7
- log reduction S. marcescens [4, 19]: >5.2
- log reduction S. marcescens [4, 20]: 2.0
- log reduction S. marcescens [4, 21]: 1.7
- log reduction S. marcescens [4, 22]: >5.2
- log reduction S. marcescens [4, 23]: 2.0
- log reduction S. marcescens [4, 24]: 4.8
- log reduction S. marcescens [4, 25]: >5.2
- log reduction S. marcescens [4, 26]: 2.0
- log reduction S. marcescens [4, 27]: >5.2
- log reduction S. marcescens [4, 28]: >5.2
- log reduction S. marcescens [4, 29]: 2.0
- log reduction S. marcescens [4, 30]: 4.7
- log reduction S. marcescens [4, 31]: >5.4
- log reduction S. marcescens [4, 32]: >5.4
- log reduction S. marcescens [4, 33]: >5.4
- log reduction S. marcescens [4, 34]: 4.9
- log reduction S. marcescens [4, 35]: >5.2
- log reduction S. marcescens [4, 36]: >5.4
- log reduction S. marcescens [4, 37]: >5.2
- log reduction S. marcescens [4, 38]: >5.2
- log reduction S. marcescens [4, 39]: >5.4
- log reduction S. marcescens [4, 40]: >5.4
- log reduction S. marcescens [4, 41]: >5.4
- log reduction S. marcescens [4, 42]: >5.4
